Assay: gradient 5% acetonitrile 3 min, to 50% in 2 min, to 85% in 15 min, held 3 min, 100 µL/min
Conditions: column: Zorbax Extend-C18 2.1 x 50 mm; eluents: water / acetonitrile, 0.1% formic acid
Summary of the method: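 Pure standards were run in mixtures of ~100 molecules by HPLC coupled to a quadrupole time-of-flight mass spectrometer. The column was a Zorbax Extend-C18 (2.1 × 50 mm, 1.8 μm) at 100 μL/min, with water and acetonitrile each containing 0.1% formic acid, in positive and negative ionization mode. Dead and dwell volumes were 40 μL and 900 μL. Retention time was taken from computationally picked adduct peaks, each manually inspected, with data collected over 3 months.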

| SMILES | RP-LC retention time |
| --- | --- |
| Cc1nc(C2(C)CCN(S(=O)(=O)c3c(C)c(C)cc(C)c3C)CC2)no1 | 1140 s |
| CCN(CC)S(=O)(=O)c1cccc(-c2nnc(-c3ccccc3Br)o2)c1 | 1100 s |
| Cc1cc2nn(CC(=O)N3CCc4ccccc43)c(=O)n2c(Nc2ccc(F)cc2)n1 | 1030 s |
| O=C(NCc1ccccn1)c1ccc2c(c1)CCCN2S(=O)(=O)c1ccccc1 | 703 s |
| CCn1cc(S(=O)(=O)Nc2cccc(C#N)c2)c2cccnc21 | 781 s |
| Cc1ccccc1C(=O)N1CCN(S(=O)(=O)c2cc3c4c(c2)CCC(=O)N4CCC3)CC1 | 785 s |
| Cn1nc(-c2nc(C3CC3)no2)c2c1CCN(C(=O)c1ccc(C(F)(F)F)s1)C2 | 970 s |
| O=C(O)CC1Sc2ccccc2NC1=O (stereo unspecified) | 607 s |
| CC(C)(C)c1csc(-c2csc(S(=O)(=O)NCc3cccs3)c2)n1 | 1180 s |
| Cc1ccsc1CN1CCc2oc(C)c(C(=O)N3CCOCC3)c2C1 | 536 s |
| Cc1cc(C)c(S(=O)(=O)Nc2ccc(-c3cn4ccccc4n3)cc2)cc1C | 719 s |
| CCCCN(C)C(=O)c1ccc2c(c1)N(CCC)C(=O)C1CCC(=O)N21 (stereo unspecified) | 759 s |
| COc1ccc(-c2nnc(-c3cc(S(=O)(=O)NCC4CCCO4)ccc3Cl)o2)cc1 (stereo unspecified) | 917 s |
| CCN(C(=O)CN1C(=O)CCCc2cc(S(=O)(=O)N3CCCCC3)ccc21)c1ccc(OC)cc1 | 961 s |
| Fc1cccc(-c2nc(-c3cn(Cc4ccccc4)nn3)no2)c1 | 1020 s |
| Cc1sc(-c2noc(C3CCC3)n2)cc1S(=O)(=O)N1CCC(C(=O)N2CCOCC2)CC1 | 948 s |
| CCCn1c(-c2cccc(C(=O)NCc3ccc(C(F)(F)F)cc3)c2)nc2cccnc21 | 933 s |
| O=C(C1CCN(c2nnc3ccccn23)CC1)N1CCN(c2ccccn2)CC1 | 543 s |

| SMILES | RP-LC retention time |
| --- | --- |
| O=C(NCc1ccc(F)cc1)C1CCN(C(=O)C2Sc3ccccc3NC2=O)CC1 (stereo unspecified) | 804 s |
| CN1CCN(C(=O)c2csc(N3CCN(c4cccc(Cl)c4)CC3)n2)CC1 | 690 s |
| OC1(c2ccccn2)CCOC2(CCN(Cc3ccc(Cl)cc3F)CC2)C1 (stereo unspecified) | 579 s |
| Cc1ccn2cc(-c3ccc(NC(=O)c4ccccc4Cl)cc3)nc2n1 | 652 s |
| O=C1CCCc2cc(S(=O)(=O)N3CCC(C(=O)Nc4cccc(Cl)c4)CC3)ccc2N1 | 826 s |
| CCOC(=O)N1CCC(NC(=O)CCc2cc3cc(C)ccc3[nH]c2=O)CC1 | 677 s |
| Cc1ccc(NC(=O)c2cc(C)n3nccc3n2)cc1C | 1030 s |
| CCOc1ccccc1N(CC)C(=O)C1CCCN(c2ncnc3c2nc2n3CCCCC2)C1 (stereo unspecified) | 807 s |
| Clc1ccc2nc(-c3ccccc3)c(Nc3ccc4c(c3)OCCO4)n2c1 | 746 s |
| O=C(NCc1ccc2c(c1)OCO2)C1CCN(c2cnc3nccnc3c2)CC1 | 659 s |
| CC(C)N1C(=O)C2(CCCC2)C1C(=O)N1CCc2ccccc21 (stereo unspecified) | 780 s |
| CCCN(CC1CCOC1)C(=O)Nc1cc(F)c(F)c(F)c1 (stereo unspecified) | 844 s |
| O=C(c1cnccn1)N1CCN(c2ccc(-n3cccn3)nn2)CC1 | 580 s |
| O=C(C1CCN(c2ncnc3c2oc2ccccc23)CC1)N1CCC(Cc2ccccc2)CC1 | 995 s |
| CCn1ccc2c(cc(C(=O)Nc3cc(C)ccc3C)n2C)c1=O | 721 s |
| COc1cc(-c2nnc(-c3cccc(S(=O)(=O)N(C)C)c3)o2)cc(OC)c1OC | 873 s |
| Cc1cnc(C2CN(Cc3cccc(C#N)c3)C2)n1Cc1ccccc1 | 582 s |
| Cc1cccc(-n2c(=O)c3c(cc(C)n3C)n(CC(=O)Nc3ccc(C)c(Cl)c3)c2=O)c1 | 960 s |

Source: the METLIN SMRT retention time set (Domingo-Almenara et al. 2019)
